Data published in patent publication US20240391936A1, “TETRAHYDROTHIENO PYRIDINE DERIVATIVES AS DDRS INHIBITORS” (CHIESI FARMACEUTICI S.P.A., priority 2021, published 2024).

Legend:
DDR1 [1] = biological target: T1, DDR1 (Homo sapiens, UniProt Q08345); assay: DDR1 binding assay (LanthaScreen Europium Kinase Binding assay); parameters: purchased Carna Biosciences; conditions: binding assay, 5 nM DDR1, 20 nM Kinase Tracer 178; Ki from IC50 by Cheng-Prusoff; read-out: Ki DDR1
Method in brief: (§1)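 TR-FRET tracer-displacement format: 665/615 nm emission ratio (340 nm excitation) gave IC50 by 4-parameter fit, then Ki via Cheng-Prusoff. Each kinase at 5 nM with 2 nM Eu-anti-GST antibody and Tracer 178 (DDR1 20 nM, DDR2 10 nM), 1 h, room temperature, HEPES pH 7.5 buffer.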

DDR2 = biological target: T2, DDR2 (Homo sapiens, UniProt Q16832); assay: DDR2 binding assay (LanthaScreen Europium Kinase Binding assay); parameters: purchased Life Technologies; conditions: binding assay, 5 nM DDR2, 10 nM Kinase Tracer 178; Ki from IC50 by Cheng-Prusoff; read-out: Ki DDR2
T2 sequence (Q16832 22-855): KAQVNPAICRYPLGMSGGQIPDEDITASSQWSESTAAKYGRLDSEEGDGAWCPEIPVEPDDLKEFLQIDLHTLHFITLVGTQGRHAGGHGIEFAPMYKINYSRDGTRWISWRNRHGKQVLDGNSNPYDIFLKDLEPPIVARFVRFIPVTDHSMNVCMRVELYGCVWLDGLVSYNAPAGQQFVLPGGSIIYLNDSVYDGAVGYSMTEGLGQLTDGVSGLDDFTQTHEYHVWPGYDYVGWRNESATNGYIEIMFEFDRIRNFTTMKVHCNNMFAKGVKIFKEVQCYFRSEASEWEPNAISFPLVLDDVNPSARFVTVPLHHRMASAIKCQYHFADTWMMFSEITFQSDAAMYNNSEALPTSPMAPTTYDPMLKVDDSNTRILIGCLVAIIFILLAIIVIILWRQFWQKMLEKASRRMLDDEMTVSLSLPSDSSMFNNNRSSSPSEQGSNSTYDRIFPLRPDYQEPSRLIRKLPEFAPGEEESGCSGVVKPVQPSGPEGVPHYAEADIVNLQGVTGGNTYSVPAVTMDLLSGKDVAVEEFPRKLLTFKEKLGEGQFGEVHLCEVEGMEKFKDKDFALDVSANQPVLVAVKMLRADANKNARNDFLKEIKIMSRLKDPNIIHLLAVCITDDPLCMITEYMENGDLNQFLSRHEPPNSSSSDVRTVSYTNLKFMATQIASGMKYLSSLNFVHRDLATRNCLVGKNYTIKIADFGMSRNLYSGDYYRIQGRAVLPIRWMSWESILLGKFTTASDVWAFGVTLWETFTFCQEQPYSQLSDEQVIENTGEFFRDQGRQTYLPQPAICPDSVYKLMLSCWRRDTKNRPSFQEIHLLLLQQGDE
Method in brief: as §1

DDR1 [2] = biological target: T1, DDR1; assay: DDR1 cell based assay (PathHunter U2OS DDR1 assay); parameters: host or cells: U2OS-DDR1 (PathHunter); conditions: U2OS-DDR1 cells, bovine Type II Collagen 20 μg/ml
Method in brief: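 Receptor activation measured by enzyme-fragment complementation luminescence in engineered U2OS cells. Compound added 30 min before overnight challenge with 20 μg/ml bovine collagen II; data scaled between vehicle and collagen-stimulated controls, IC50 derived by four-parameter variable-slope fitting.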

T1 sequence (Q08345 19-913): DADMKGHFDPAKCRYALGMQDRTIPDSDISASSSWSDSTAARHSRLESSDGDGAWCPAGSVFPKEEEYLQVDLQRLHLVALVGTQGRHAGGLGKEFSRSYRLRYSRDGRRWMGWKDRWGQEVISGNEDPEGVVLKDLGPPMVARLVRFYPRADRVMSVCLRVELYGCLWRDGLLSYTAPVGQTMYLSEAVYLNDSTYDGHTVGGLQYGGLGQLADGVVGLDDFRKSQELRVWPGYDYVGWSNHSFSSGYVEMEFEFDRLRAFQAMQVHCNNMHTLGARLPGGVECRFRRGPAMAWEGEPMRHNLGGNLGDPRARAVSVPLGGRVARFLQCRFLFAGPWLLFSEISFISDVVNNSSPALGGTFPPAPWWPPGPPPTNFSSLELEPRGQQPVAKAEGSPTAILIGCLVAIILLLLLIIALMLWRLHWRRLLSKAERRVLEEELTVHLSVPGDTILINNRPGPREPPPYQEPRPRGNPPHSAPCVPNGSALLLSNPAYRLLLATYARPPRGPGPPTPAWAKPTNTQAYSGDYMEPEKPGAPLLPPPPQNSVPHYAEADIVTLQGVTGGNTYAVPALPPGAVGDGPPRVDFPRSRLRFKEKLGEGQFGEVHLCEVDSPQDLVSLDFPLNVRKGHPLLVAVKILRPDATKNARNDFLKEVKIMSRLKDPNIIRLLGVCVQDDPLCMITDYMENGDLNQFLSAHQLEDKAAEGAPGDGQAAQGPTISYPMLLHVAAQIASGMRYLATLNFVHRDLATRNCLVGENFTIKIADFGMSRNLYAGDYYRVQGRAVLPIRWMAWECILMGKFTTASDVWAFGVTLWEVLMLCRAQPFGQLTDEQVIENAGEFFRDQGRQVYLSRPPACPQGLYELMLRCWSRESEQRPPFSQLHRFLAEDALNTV

| Structure (SMILES) | Ki (DDR1 [1]) | Ki (DDR2) | IC50 (DDR1 [2]) |
| --- | --- | --- | --- |
| O=C(Nc1cccc(C(F)(F)F)c1)c1csc2c1CCN(C(=O)c1cnc3ccc(OCCO)cn13)C2 [Example 137, 6-(6-(2-hydroxyethoxy)imidazo[1,2-a]pyridine-3-carbonyl)-N-(3-(trifluoromethyl)phenyl)-4,5,6,7-tetrahydrothieno[2,3-c]pyridine-3-carboxamide] | < 25 nM | < 25 nM | < 25 nM |
| COCCOc1ccn2c(C(=O)N3CCc4c(C(=O)Nc5cccc(C(F)(F)F)c5)csc4C3)cnc2c1 [Example 138, 6-(7-(2-methoxyethoxy)imidazo[1,2-a]pyridine-3-carbonyl)-N-(3-(trifluoromethyl)phenyl)-4,5,6,7-tetrahydrothieno[2,3-c]pyridine-3-carboxamide] | < 25 nM | < 25 nM | < 25 nM |
| O=C(Nc1cccc(C(F)(F)F)c1)c1csc2c1CCN(C(=O)c1cnc3cc(OCCN4CCOCC4)ccn13)C2 [Example 139, 6-(7-(2-morpholinoethoxy)imidazo[1,2-a]pyridine-3-carbonyl)-N-(3-(trifluoromethyl)phenyl)-4,5,6,7-tetrahydrothieno[2,3-c]pyridine-3-carboxamide] | < 25 nM | < 25 nM | 25 to 50 nM |
| COc1ccn2ncc(C(=O)N3CCc4c(C(=O)Nc5cncc(C(F)(F)F)c5)csc4C3)c2c1 [Example 140, 6-(5-methoxypyrazolo[1,5-a]pyridine-3-carbonyl)-N-(5-(trifluoromethyl)pyridin-3-yl)-4,5,6,7-tetrahydrothieno[2,3-c]pyridine-3-carboxamide] | < 25 nM | < 25 nM | < 25 nM |
| O=C(Nc1cncc(C(F)(F)F)c1)c1csc2c1CCN(C(=O)c1cnn3ccsc13)C2 [Example 141, 6-(pyrazolo[5,1-b]thiazole-7-carbonyl)-N-(5-(trifluoromethyl)pyridin-3-yl)-4,5,6,7-tetrahydrothieno[2,3-c]pyridine-3-carboxamide] | < 25 nM | < 25 nM | < 25 nM |
| COc1ccn2c(C(=O)N3CCc4c(C(=O)Nc5cncc(C(F)(F)F)c5)csc4C3)cnc2c1 [Example 142, 6-(7-methoxyimidazo[1,2-a]pyridine-3-carbonyl)-N-(5-(trifluoromethyl)pyridin-3-yl)-4,5,6,7-tetrahydrothieno[2,3-c]pyridine-3-carboxamide] | < 25 nM | < 25 nM | 50 to 80 nM |
| Cn1ccn2ncc(C(=O)N3CCc4c(C(=O)Nc5cncc(C(F)(F)F)c5)csc4C3)c12 [Example 143, 6-(1-methyl-1H-imidazo[1,2-b]pyrazole-7-carbonyl)-N-(5-(trifluoromethyl)pyridin-3-yl)-4,5,6,7-tetrahydrothieno[2,3-c]pyridine-3-carboxamide] | < 25 nM | < 25 nM | < 25 nM |
| O=C(Nc1cncc(C(F)(F)F)c1)c1csc2c1CCN(C(=O)c1cnc3cc(F)ccn13)C2 [Example 144, 6-(7-fluoroimidazo[1,2-a]pyridine-3-carbonyl)-N-(5-(trifluoromethyl)pyridin-3-yl)-4,5,6,7-tetrahydrothieno[2,3-c]pyridine-3-carboxamide] | < 25 nM | < 25 nM | < 25 nM |
| CN1CCN(c2ccc3ncc(C(=O)N4CCc5c(C(=O)Nc6cc(C(C)(C)C)n(C)n6)csc5C4)n3c2)CC1 [Example 145, N-(5-(tert-butyl)-1-methyl-1H-pyrazol-3-yl)-6-(6-(4-methylpiperazin-1-yl)imidazo[1,2-a]pyridine-3-carbonyl)-4,5,6,7-tetrahydrothieno[2,3-c]pyridine-3-carboxamide] | < 25 nM | 25 to 50 nM | 25 to 50 nM |
| Cc1n[nH]c2ncc(CN3CCc4c(C(=O)Nc5cc(C6CC6)nn5C)csc4C3)cc12 [Example 146, N-(3-cyclopropyl-1-methyl-1H-pyrazol-5-yl)-6-((3-methyl-1H-pyrazolo[3,4-b]pyridin-5-yl)methyl)-4,5,6,7-tetrahydrothieno[2,3-c]pyridine-3-carboxamide] | < 25 nM | < 25 nM | 25 to 50 nM |
| Cc1n[nH]c2ncc(CN3CCc4c(C(=O)Nc5cc(C(C)(C)C)no5)csc4C3)cc12 [Example 147, N-(3-(tert-butyl)isoxazol-5-yl)-6-((3-methyl-1H-pyrazolo[3,4-b]pyridin-5-yl)methyl)-4,5,6,7-tetrahydrothieno[2,3-c]pyridine-3-carboxamide] | < 25 nM | < 25 nM | < 25 nM |
| Cc1n[nH]c2ncc(CN3CCc4c(C(=O)Nc5cc(C6CC6)on5)csc4C3)cc12 [Example 148, N-(5-cyclopropylisoxazol-3-yl)-6-((3-methyl-1H-pyrazolo[3,4-b]pyridin-5-yl)methyl)-4,5,6,7-tetrahydrothieno[2,3-c]pyridine-3-carboxamide] | < 25 nM | < 25 nM | < 25 nM |
| CN1CCN(c2n[nH]c3ncc(CN4CCc5c(C(=O)Nc6cncc(C(F)(F)F)c6)csc5C4)cc23)CC1 [Example 149, 6-((3-(4-methylpiperazin-1-yl)-1H-pyrazolo[3,4-b]pyridin-5-yl)methyl)-N-(5-(trifluoromethyl)pyridin-3-yl)-4,5,6,7-tetrahydrothieno[2,3-c]pyridine-3-carboxamide] | < 25 nM | < 25 nM | 25 to 50 nM |
| O=C(Nc1cncc(C(F)(F)F)c1)c1csc2c1CCN(Cc1cnn3ccncc13)C2 [Example 154, 6-(pyrazolo[1,5-a]pyrazin-3-ylmethyl)-N-(5-(trifluoromethyl)pyridin-3-yl)-4,5,6,7-tetrahydrothieno[2,3-c]pyridine-3-carboxamide] | < 25 nM | < 25 nM | 50 to 80 nM |
| O=C(Nc1cncc(C(F)(F)F)c1)c1csc2c1CCN(Cc1ncnc3[nH]ccc13)C2 [Example 155, 6-((7H-pyrrolo[2,3-d]pyrimidin-4-yl)methyl)-N-(5-(trifluoromethyl)pyridin-3-yl)-4,5,6,7-tetrahydrothieno[2,3-c]pyridine-3-carboxamide] | < 25 nM | < 25 nM | 25 to 50 nM |
| CC(C)(C)c1cc(NC(=O)c2csc3c2CCN(Cc2cnc4ccnn4c2)C3)on1 [Example 156, N-(3-(tert-butyl)isoxazol-5-yl)-6-(pyrazolo[1,5-a]pyrimidin-6-ylmethyl)-4,5,6,7-tetrahydrothieno[2,3-c]pyridine-3-carboxamide] | < 25 nM | < 25 nM | < 25 nM |
| Cc1n[nH]c2ncc(CN3CCc4c(C(=O)Nc5cc(CN6CC[C@@H](N(C)C)C6)cc(C(F)(F)F)c5)csc4C3)cc12 [Example 157, (R)—N-(3-((3-(dimethylamino)pyrrolidin-1-yl)methyl)-5-(trifluoromethyl)phenyl)-6-((3-methyl-1H-pyrazolo[3,4-b]pyridin-5-yl)methyl)-4,5,6,7-tetrahydrothieno[2,3-c]pyridine-3-carboxamide] | < 25 nM | 25 to 50 nM | 25 to 50 nM |
| CN(C)[C@@H]1CCN(Cc2cc(NC(=O)c3csc4c3CCN(Cc3cnc5[nH]ccc5c3)C4)cc(C(F)(F)F)c2)C1 [Example 159, (R)-6-((1H-pyrrolo[2,3-b]pyridin-5-yl)methyl)-N-(3-((3-(dimethylamino)pyrrolidin-1-yl)methyl)-5-(trifluoromethyl)phenyl)-4,5,6,7-tetrahydrothieno[2,3-c]pyridine-3-carboxamide] | < 25 nM | < 25 nM | 25 to 50 nM |
| CN(C)[C@@H]1CCN(Cc2cc(NC(=O)c3csc4c3CCN(Cc3cnc5cnccn35)C4)cc(C(F)(F)F)c2)C1 [Example 160, (R)-N-(3-((3-(dimethylamino)pyrrolidin-1-yl)methyl)-5-(trifluoromethyl)phenyl)-6-(imidazo[1,2-a]pyrazin-3-ylmethyl)-4,5,6,7-tetrahydrothieno[2,3-c]pyridine-3-carboxamide] | < 25 nM | < 25 nM | 50 to 80 nM |
